The target of one data set is T1, recombinant TcPRODH (Trypanosoma cruzi, UniProt Q4CVA1).
T1 construct: gene Tc00.1047053506411.30; dimer (native gel of mitochondria, 140 kDa)
T1 sequence (Q4CVA1 17-566): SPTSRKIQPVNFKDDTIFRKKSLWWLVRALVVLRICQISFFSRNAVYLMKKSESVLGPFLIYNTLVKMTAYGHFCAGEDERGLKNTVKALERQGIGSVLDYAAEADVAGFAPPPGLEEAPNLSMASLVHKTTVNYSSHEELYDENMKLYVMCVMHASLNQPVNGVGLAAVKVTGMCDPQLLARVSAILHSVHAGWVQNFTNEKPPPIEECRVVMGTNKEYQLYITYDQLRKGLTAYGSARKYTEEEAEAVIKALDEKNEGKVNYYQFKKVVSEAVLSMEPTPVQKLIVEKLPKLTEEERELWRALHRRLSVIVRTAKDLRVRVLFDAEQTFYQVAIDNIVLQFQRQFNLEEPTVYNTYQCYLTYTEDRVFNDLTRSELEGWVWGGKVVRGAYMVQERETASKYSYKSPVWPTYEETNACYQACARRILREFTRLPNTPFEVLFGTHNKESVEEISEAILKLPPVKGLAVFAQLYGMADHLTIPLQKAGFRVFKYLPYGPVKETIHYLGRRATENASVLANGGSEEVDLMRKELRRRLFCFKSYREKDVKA
Put plainly: UV-visible spectrum of purified enzyme; cofactor dependence of activity. Particulars: flavin peaks at 370 and 450 nm; NAD+ and NADP+ not accepted. Format: biochemical.

Substrate in the data set “purified protein”: O=C(O)[C@@H]1CCCN1
Put plainly: purified protein. Particulars: DCPIP/phenazine methosulfate acceptor, MOPS, MgCl2, glycerol, pH 7.5, error printed as ±1.69 in text (b1).

Take `Cc1cc2nc3c(=O)[nH]c(=O)nc-3n(C[C@H](O)[C@H](O)[C@H](O)COP(=O)(O)OP(=O)(O)OC[C@H]3O[C@@H](n4cnc5c(N)ncnc54)[C@H](O)[C@@H]3O)c2cc1C` [FAD]: the “UV-visible spectrum of purified enzyme; cofactor dependence of activity” value at recombinant TcPRODH is recorded as “purified enzyme had a typical flavoprotein absorbance spectrum, characterized by two flavin absorption peaks”.

B1: recombinant TcPRODH (Trypanosoma cruzi strain CL Brener) (protein)
chain: T1 sequence (Q4CVA1 17-566)
Regarding B1, in the data set “purified protein”, the Km (as a rule, the substrate concentration at which the rate is half of its maximum) amounted to 16.58 ± 6.08 µM.

The values are drawn from paper PMC3718742, “Proline Dehydrogenase Regulates Redox State and Respiratory Metabolism in Trypanosoma cruzi” (PLoS ONE, 2013).
